Tests used:
MDA-MB231 cells = assay: MTT cell viability assay on MDA-MB231 cells; assay type: cell-based, human; conditions: MDA-MB231, 48 h, ± S. D.
From the text: (§1) Human MDA-MB-231 (ER–/PR–/HER2–) and SK-BR-3 (ER–/PR–/HER2+) cells were obtained from American Type Culture Collection (Rockville, MD) and cultured in Dulbecco's Modified Essential Medium (DMEM, Gibco, Life Technologies) supplemented with 10% fetal bovine serum (FBS, Gibco, Life Technologies) and 1% penicillin–streptomycin (Gibco, Life Technologies). A17 cells were established from a spontaneous lobular carcinoma that arose in an FVB/neuT mouse (Galiè et al., [2005]), and maintained in DMEM plus 20% FBS and 1% penicillin-streptomycin. Cells were cultured at 37°C under humidified atmosphere with 5% CO2.
Stock solutions were prepared for each gold(I) compound (50 mM) using dimethyl sulfoxide (DMSO) (Sigma-Aldrich) as solvent. The effects of gold(I) compounds on SKBR3, A17 and MDA-MB231 cells viability were evaluated by seeding, respectively, 10, ^*10^3, 2.5 ^*10^3, 7, ^*10^3 cells/well in 96 wells plates in complete medium (DMEM supplemented with FBS) and compared to those of cisplatin. The day after, fresh medium containing vehicle alone (DMSO, 1 % v/v final concentration) or increasing concentrations of each compound ranging from 0.1 to 100 μM was added. Cell viability was determined using a MTT [3-(4,5-dimethylthiazol-2-yl)-2,5-diphenyl-2H-tetrazolium bromide Sigma Aldrich, St. Louis, MO] assay, which is based on the conversion of MTT to formazan crystals by mitochondrial enzymes, after 24, 48, and 72 h. The formazan deposits were dissolved in DMSO and the absorbance of each well was measured at 540 nm in Multiskan Ascent 96/384 Plate Reader. Each drug concentration was evaluated with 8 replicates and each experiment was repeated three times. At the end of the experiments a dose–response curve was plotted, and the IC50 concentrations were determined. […] Quantitative data are presented as means ± SEM. […]
(§2) IC50 values were calculated for each of the cell lines tested, by fitting the concentration-effect curves data obtained in the three experiments with the sigmoid-Emax model using nonlinear regression, weighted by the reciprocal of the square of the predicted effect.

[1] = system: thioredoxin reductase (TrxR); conditions: A17, 12 h treatment, 6 μM (maximum inhibition); control 4.95 ± 0.08
Procedure: The assay was performed as previously reported (Galassi et al., [2012]) in 0.2 M Na, K-phosphate buffer (pH 7.4) containing 2 mM EDTA. The assay contained 0.12 mM NADPH and different amounts of cell lysate. The reaction was initiated by the addition of 3 mM 5,5′-dithiobis (2-nitrobenzoic acid) (DTNB) and the increase of absorbance was monitored at 412 nm over 5 min at 25°C.
Fig. 3S. Effects of gold(I) compounds 5 and 6 on redox enzyme thioredoxine reductase in A17 cancer cells. Cells were incubated for 12 hours with different amount of tested compounds 5 and 6. After incubation, cells were washed twice with PBS and lysed. TrxR activity was tested by measuring NADPH-dependent reduction of DTNB (Galassi et al, 2012).

SKBR3 cells = assay: MTT cell viability assay on SKBR3 cells; assay type: cell-based, human; conditions: for IC50: SKBR3, 48 h, ± S. D.; for cytotoxic activity in MTT screening: SKBR3 cells, 72 h (Figure 1S) and 48 h (Figure 2)
From the text: as §1
Stock solutions were prepared for each gold(I) compound (50 mM) using dimethyl sulfoxide (DMSO) (Sigma-Aldrich) as solvent. The effects of gold(I) compounds on SKBR3, A17 and MDA-MB231 cells viability were evaluated by seeding, respectively, 10, ^*10^3, 2.5 ^*10^3, 7, ^*10^3 cells/well in 96 wells plates in complete medium (DMEM supplemented with FBS) and compared to those of cisplatin. The day after, fresh medium containing vehicle alone (DMSO, 1 % v/v final concentration) or increasing concentrations of each compound ranging from 0.1 to 100 μM was added. Cell viability was determined using a MTT [3-(4,5-dimethylthiazol-2-yl)-2,5-diphenyl-2H-tetrazolium bromide Sigma Aldrich, St. Louis, MO] assay, which is based on the conversion of MTT to formazan crystals by mitochondrial enzymes, after 24, 48, and 72 h. The formazan deposits were dissolved in DMSO and the absorbance of each well was measured at 540 nm in Multiskan Ascent 96/384 Plate Reader. Each drug concentration was evaluated with 8 replicates and each experiment was repeated three times. At the end of the experiments a dose–response curve was plotted, and the IC50 concentrations were determined. Statistical analysis was performed using One-Way ANOVA analysis of variance followed by Dunnett's Multiple Comparison Test. Quantitative data are presented as means ± SEM. Differences were considered significant at ^*P ≤ 0.0332; ^**P ≤ 0.0021; ^***P ≤ 0.0002; ^****P ≤ 0.0001.
as §2

[2] = target: T1, dihydrofolate reductase (DHFR) (Mus musculus, UniProt P00375); assay: DHFR specific enzymatic activity in lysates of treated A17 cells; assay type: cell-based, murine; conditions: 6 μM (maximum inhibition)
T1 construct: Cell lysates were collected using Cell Culture Lysis Reagent; endogenous in cells; host or cells: A17 (murine basal-like breast cancer cells)
T1 sequence (P00375 1-187): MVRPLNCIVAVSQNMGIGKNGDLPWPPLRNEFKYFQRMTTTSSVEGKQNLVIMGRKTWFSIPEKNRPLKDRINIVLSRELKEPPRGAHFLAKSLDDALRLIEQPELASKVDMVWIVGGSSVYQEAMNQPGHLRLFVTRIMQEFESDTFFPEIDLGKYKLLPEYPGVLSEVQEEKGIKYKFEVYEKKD
Procedure: SKBR3, MDA-MB-231 and A17 cells were plated onto 100 mm cell culture dishes (2 × 10^6 cells/ dish). The day after, cells were treated with vehicle alone (DMSO) as control or increasing concentrations of compound 5 and compound 6 in DMEM supplemented with 2% FBS (Invitrogen, Carlsbad, CA) for 4 h or 12 h. Representative pictures of cells treated with compound 5 or 6 at the indicated concentration for 4 or 12 h just before to take cell lysates for the enzymatic tests are reported as supplemental files. Cell lysates were collected using Cell Culture Lysis Reagent (Promega, Madison, WI) supplemented with BSA (1%) and protease inhibitors. DHFR activity was assessed by spectrophotometric assay as reported elsewhere (Wang et al., [2020]) in which the reaction rate was followed by recording the decreasing absorbance at 340 nm due to oxidation of NADPH to NADP^+, using a Shimadzu UV-2450 spectrophotometer. When necessary, because of low protein content in the lysates, the DHFR enzymatic activity was measured by a discontinuous direct HPLC assay using an Agilent 1100 system. HPLC-DAD (Agilent 1100) was used to detect and quantify the presence of NADP^+, as one of the products of DHFR catalyzed reaction, in cell lysates. Fifty microliter of the cell lysate were incubated at 37°C in a reaction mixture containing 760 μl of buffer (0.05 M Hepes pH 7.3), 20 μl of NADPH 4 mM, and 20 μl of dihydrofolate (H2F) 4 mM. The samples for HPLC analysis were prepared as follows: 50 μl aliquots of each mixture were stopped at different times (0, 5, 10, 20, 30, and 60 min) by adding 25 μl of HClO4 1.2 M; after 10 min on ice and centrifugation for 5 min at 12,000 g, 60 μl of each supernatant were neutralized by adding 17.5 μl of K2CO3 0.79 M, kept on ice and centrifuged again. Fifty microliter of the supernatant obtained were directly injected into the reversed phase column for separations of reagents and products of the enzyme catalyzed reaction. The column used is a Supelcosil LC RP 18 (4.6 × 250 mm) with pre-column SupelGuard. The HPLC settings are the same reported in Wang et al. ([2020]). The amounts of product (NADP^+) were determined from the peak areas of the HPLC-separated compounds with reference to appropriate standards. One enzyme unit is defined as the amount of enzyme which catalyzes the reduction of 1 μmol of dihydrofolate, per minute, at 37°C. Enzyme activities were normalized by the protein content, determined by the Bradford assay (Bradford, [1976]).

BLBC tumors = system: BLBC tumors; design: method as in Gambini et al., 2018; conditions: ref Gambini et al., 2018; cited from earlier work
[3] = A17, 4 h treatment, control 1.17 ± 0.06
[4] = A17, 12 h treatment, control 4.77 ± 0.78

Substance | IC50 (MDA-MB231 cells) | Specific enzymatic activity of TrxR [1] | IC50 (SKBR3 cells) | cytotoxic activity in MTT screening (SKBR3 cells) | Specific enzymatic activity of DHFR [2, 3] | Specific enzymatic activity of DHFR [2, 4] | activity against BLBC tumors transplanted in syngeneic mice compared with cisplatin (BLBC tumors)
4,5-dichloro-imidazolate-1yl-gold(I)-(triphenylphosphane) [Compound 6] | 3.46 ± 0.29 µM | 4.21 ± 0.09 (6 μM) mU/mg | 4.55 ± 0.25 µM | most active | 1.03 ± 0.03 mU/mg | 2.01 ± 0.14 mU/mg | much more active than cisplatin
4,5-dicyano-imidazolate-1yl-gold(I)-(triphenylphosphane) [Compound 5] | 7.03 ± 0.76 µM | 1.84 ± 0.06 (6 μM) mU/mg | 5.36 ± 0.35 µM | most active | 1.07 ± 0.02 mU/mg | 1.66 ± 0.07 mU/mg | much more active than cisplatin

From PMC7821381, “Multi-Targeted Anticancer Activity of Imidazolate Phosphane Gold(I) Compounds by Inhibition of DHFR and TrxR in Breast Cancer Cells” (Frontiers in Chemistry, 2021)
